Assay results from the NIST ThermoML archive (doi:10.1021/acs.jced.5b00535).
± gives the expanded uncertainty stated by the source.

Settings: 101.33 kPa, Liquid, Vibrating tube method

mass density (323.15 K): 988.035 ± 0.053 kg/m3 | mass density (328.15 K): 985.693 ± 0.055 kg/m3 | mass density (333.15 K): 983.196 ± 0.057 kg/m3 | mass density (338.15 K): 980.551 ± 0.059 kg/m3 | mass density (343.15 K): 977.765 ± 0.061 kg/m3
Compound: O [water]
